Data set [1] addresses T1, rabbit muscle GPa (RMGPa) (Oryctolagus cuniculus, UniProt P00489).
T1 sequence (P00489 2-843 limits assumed): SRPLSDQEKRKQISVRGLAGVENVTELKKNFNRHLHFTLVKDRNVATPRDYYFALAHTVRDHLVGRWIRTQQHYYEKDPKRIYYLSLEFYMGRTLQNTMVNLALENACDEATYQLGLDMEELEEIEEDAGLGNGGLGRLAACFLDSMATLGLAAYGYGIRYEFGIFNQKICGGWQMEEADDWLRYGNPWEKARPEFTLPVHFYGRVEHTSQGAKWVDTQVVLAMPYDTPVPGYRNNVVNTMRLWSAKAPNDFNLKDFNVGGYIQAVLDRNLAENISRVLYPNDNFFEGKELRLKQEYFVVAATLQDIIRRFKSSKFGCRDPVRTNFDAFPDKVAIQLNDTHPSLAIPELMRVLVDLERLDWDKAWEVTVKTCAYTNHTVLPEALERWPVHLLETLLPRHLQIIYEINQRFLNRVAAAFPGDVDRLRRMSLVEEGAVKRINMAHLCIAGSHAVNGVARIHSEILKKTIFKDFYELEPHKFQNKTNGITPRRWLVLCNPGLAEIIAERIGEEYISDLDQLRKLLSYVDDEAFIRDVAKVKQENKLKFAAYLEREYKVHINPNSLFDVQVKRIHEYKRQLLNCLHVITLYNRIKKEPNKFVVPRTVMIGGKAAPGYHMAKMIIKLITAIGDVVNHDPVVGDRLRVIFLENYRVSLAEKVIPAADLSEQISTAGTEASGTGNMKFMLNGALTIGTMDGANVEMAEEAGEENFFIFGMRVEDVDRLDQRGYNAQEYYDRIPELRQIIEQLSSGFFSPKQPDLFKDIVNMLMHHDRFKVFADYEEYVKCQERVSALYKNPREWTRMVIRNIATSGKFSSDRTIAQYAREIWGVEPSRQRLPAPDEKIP
In words: RMGPa inhibition assay (phosphate release from glucose-1-phosphate). Particulars: mean ± S.D. of three determinations; NI means no inhibition. The class given is biochemical.

The nature of data set [2]: Stability in simulated gastric fluid (SGF). The settings on record: SGF pH 1.21 with pepsin, 2 μM, 37 °C, 24 h incubation. It is filed as in vitro ADME.
Data set [3] is described as follows: Stability in simulated intestinal fluid (SIF). The class given is in vitro ADME. Particulars: SIF pH 6.79 with pancreatin, 2 μM, 37 °C, 24 h incubation.

By IC50 is commonly meant the concentration at which inhibition is half-maximal. A higher IC50 goes with a need for much substance. With `C[C@H](CCC(=O)N[C@@H](CC(=O)O)C(=O)OC1CCN(C(=O)[C@H](Cc2ccc(F)cc2)NC(=O)c2cc3cc(Cl)ncc3[nH]2)CC1)[C@H]1CC[C@H]2[C@@H]3[C@H](O)C[C@@H]4C[C@H](O)CC[C@]4(C)[C@H]3C[C@H](O)[C@]12C` [Conjugate 6], the IC50 in data set [1] came to 31.2 ± 11.1 µM. Moreover, the “stability in SGF (in words)” value in data set [2] is listed as “stable”. The “stability in SIF (in words)” value in data set [3] is “stable up to 24 h”.
With `O=C(N[C@@H](Cc1ccc(F)cc1)C(=O)N1CCC(O)CC1)c1cc2cc(Cl)ncc2[nH]1` [PSN-357], the midpoint of inhibition in data set [1], the IC50, lay at 0.42 ± 0.01 µM.

These data come from PMC5320518, “Novel Liver-targeted conjugates of Glycogen Phosphorylase Inhibitor PSN-357 for the Treatment of Diabetes: Design, Synthesis, Pharmacokinetic and Pharmacological Evaluations” (Scientific Reports, 2017).
